According to US20190297888A1, “FUNGICIDAL COMPOUNDS AND MIXTURES FOR FUNGAL CONTROL IN CEREALS” (Dow AgroSciences LLC, priority 2016, published 2019):

Assays:
Assay type in all cases: in vivo
Conditions in all cases: AUDPC-based, 2 field trials
[1] = test system: Zymoseptoria tritici (SEPTTR); assay: Field assessment of Compound I and fluxapyroxad on leaf blotch of wheat (AUDPC % control)
Text: Treatments consisting of the compound of Formula I and fungicide compound fluxapyroxad against fungal diseases of wheat were applied either using individually or as a two-way mixture of fluxapyroxad with the compound of Formula I. The compound of Formula I was applied with Agnique BP-420 (50% w/w at 0.3% v/v) at 50, 75 and 100 g ai/ha and Imtrex (Fluxapyroxad 62.5 g/L) was applied at 50, 75 and 100 g ai/ha. Commercial standards used in the studies were Adexar (epoxiconazole+fluxapyroxad—125 g/L), applied at 1.2 and 1.6 L pr/ha, and Elatus Era (benzovindiflupyr+prothioconazole—225 g/L), applied at 1.0 L pr/ha.
Fungicidal treatments containing the compound of Formula I and fluxapyroxad, either individually or as a two-way mixture, were assessed against leaf spot of wheat (SEPTTR) in two separate field trials. In the first trial, fungicidal treatments were applied at B32 (curative, 12% infection at application on L4) growth stage of winter wheat (TRZAW, TOBAK variety). The treatments were part of an experimental trial designed as a randomized complete block with four replications and a plot of approximately 2×2 m. Treatments were applied at water volume of 200 L/ha, using a backpack plot sprayer (BCYAIR, FLATFANA nozzle) and pressurized at 220 kPa.
In the second trial, fungicidal treatments were applied at B33-39 (curative, 50% infection at application on L5) growth stages of winter wheat (TRZAW, Consort variety). The treatments were part of an experimental trial designed as a randomized complete block with four replications and a plot of approximately 1.5×14 m. Treatments were applied at water volume of 200 L/ha, using a backpack plot sprayer (BKPCKAIR, Flat fan nozzle) and pressurized at 210 kPa.
(§1) Disease severity (percentage of visual diseased foliage on whole plot or leaves) in both field trials was recorded following EPPO PP1/26 guideline prescriptions. Area under the disease progress curve (AUDPC) was calculated for each plot in both trials using the sets of recorded severity data. Relative AUDPC (% control based on AUDPC) was calculated as percent of the nontreated control. Final results for the control of leaf spot of wheat by the compound of Formula I, fluxapyroxad and mixtures are reported as an average of the relative AUDPC calculated over both field trials. Statistical analysis was done according to ANOVA and Tukey's test (p=0.10).

[2] = test system: Pyrenophora teres (PYRNTE); assay: Field assessment of Compound I and fluxapyroxad on net blotch of barley (AUDPC % control)
Procedure: Commercial standards used in the studies were Proline 275 (275 g ai/L Prothioconazole), applied at 150 g ai/ha, and SiltraXpro (200 g ai/L prothioconazole+60 g ai/[…] bixafen), applied at 195 g ai/ha.
Fungicidal treatments containing the compound of Formula I and fluxapyroxad, either individually or as a two-way mixture, were assessed against net blotch of barley (PYRNTE) in two separate field trials. In both trials, fungicidal treatments were applied at B31-37 growth stages of winter barley and sprong barley (HORVW, Lomeritt variety; HORVS, Scarlett variety) under natural infection of net blotch (protectant tests, 1% infection on leaf 4 and 10% infection on leaf 6 at application). All treatments were part of an experimental trial designed as a randomized complete block with four replications.
as §1, with “Final results for the control of leaf spot of wheat by the compound of Formula I, fluxapyroxad and mixtures are reported as an average of the relative AUDPC calculated over both field trials.” left out

[3] = test system: Puccinia striiformis (PUCCST); assay: Field assessment of Compound I and penthiopyrad on yellow rust of wheat (AUDPC % control)
Text: Treatments consisting of the compound of Formula I and fungicide compound penthiopyrad were applied either using individually or as a two-way mixture of penthiopyrad with the compound of Formula I. The compound of Formula I was applied with Agnique BP-420 (50% w/w at 0.3% v/v) at 75 and 150 g ai/ha and Penthiopyrad (Vertisan) was applied at 125 and 200 g ai/ha. Commercial standards used in the studies were Fluxapyroxad (Imtrex), applied at 100 g ai/ha, and Metconazole+Fluxapyroxad (Librax), applied at 161 g ai/ha.
Fungicidal treatments containing the compound of Formula I and penthiopyrad, either individually or as a two-way mixture, were assessed against yellow rust of wheat (PUCCST) in two separate field trials. In the first trial, fungicidal treatments were applied twice at B31-32 (early curative, 2% infection at application on L3) and B37-39 (0% infection at application on L) growth stages of winter wheat (TRZAW, Fairplay variety). The treatments were part of an experimental trial designed as a randomized complete block with four replications and a plot of approximately 1×6 m. Treatments were applied at water volume of 200 L/ha, using a backpack plot sprayer (BKPCKENG, F110-015 Hardi (3) Flat fan nozzle) and pressurized at 200 kPa.
In the second trial, fungicidal treatments containing the compound of Formula I and penthiopyrad, either individually or as a two-way mixture, were applied twice at B31-32 (early curative, 5% infection on L5 at application) and B37-39 (early curative, 5% infection on L1 and L2 at application) growth stages of wheat (TRZAW, Torch variety). The treatment was part of an experimental trial designed as a randomized complete block with four replications and a plot of approximately 2×3 m. Treatments were applied at water volume of 200 L/ha, using a backpack precision plot sprayer (BKCKAIR, F110-03 Hypro (4) Flat fan nozzle) and pressurized at 300 kPa.
as §1, with “of yellow rust” for “of leaf spot”, “I, penthiopyrad” for “I, fluxapyroxad”, “over all […]” for “over both”

In the case of `N#Cc1ccc(Oc2ccc(C(F)(F)C(O)(Cn3ncnc3S)c3ccc(F)cc3F)nc2)cc1` (centres unmarked) [Compound I, 4-((6-(2-(2,4-difluorophenyl)-1,1-difluoro-2-hydroxy-3-(5-mercapto-1H-1,2,4-triazol-1-yl)propyl)pyridin-3-yl)oxy)benzonitrile], the “SEPTTR % Control” value ([1]; rate 50 g ai/ha) is reported as 43.9%, the “SEPTTR % Control” value ([1]; rate 75 g ai/ha) is reported as 50.7% and the “SEPTTR % Control” value ([1]; rate 100 g ai/ha) is reported as 56.6%. For the same compound, the “PYRNTE % Control” value ([2]; rate 75 g ai/ha) was 8.66%, the “PYRNTE % Control” value ([2]; rate 100 g ai/ha) was 23.5% and the “PYRNTE % Control” value ([2]; rate 150 g ai/ha) was 40.8%. For the same compound, the “PUCCST % Control” value ([3]; rate 75 g ai/ha) was 72.8% and the “PUCCST % Control” value ([3]; rate 150 g ai/ha) was 76.4%.

`Cn1cc(C(=O)Nc2ccccc2-c2cc(F)c(F)c(F)c2)c(C(F)F)n1` [Fluxapyroxad, 3-(difluoromethyl)-1-methyl-N-(3′,4′,5′-trifluorobiphenyl-2-yl)pyrazole-4-carboxamide] was tested, and the “SEPTTR % Control” value ([1]; rate 50 g ai/ha) was 47.4%, the “SEPTTR % Control” value ([1]; rate 75 g ai/ha) was 60.9% and the “SEPTTR % Control” value ([1]; rate 100 g ai/ha) was 66.4%. For the same compound, the “PYRNTE % Control” value ([2]; rate 45 g ai/ha) was 66.5%, the “PYRNTE % Control” value ([2]; rate 62.5 g ai/ha) was 73.4% and the “PYRNTE % Control” value ([2]; rate 100 g ai/ha) was 83.2%.
